Measured values as given in US20040241720A1, “Sodium activated potassium ion channel for therapeutic drug screening” (priority 2003, published 2004).

Target: T1, rSlo2 channels (Rattus norvegicus, UniProt Q9Z258)
T1 construct: expressed in transfected cells; host or cells: Xenopus laevis oocytes injected with capped cRNA (pOX vector); inside-out patches
T1 sequence (Q9Z258 1-1239): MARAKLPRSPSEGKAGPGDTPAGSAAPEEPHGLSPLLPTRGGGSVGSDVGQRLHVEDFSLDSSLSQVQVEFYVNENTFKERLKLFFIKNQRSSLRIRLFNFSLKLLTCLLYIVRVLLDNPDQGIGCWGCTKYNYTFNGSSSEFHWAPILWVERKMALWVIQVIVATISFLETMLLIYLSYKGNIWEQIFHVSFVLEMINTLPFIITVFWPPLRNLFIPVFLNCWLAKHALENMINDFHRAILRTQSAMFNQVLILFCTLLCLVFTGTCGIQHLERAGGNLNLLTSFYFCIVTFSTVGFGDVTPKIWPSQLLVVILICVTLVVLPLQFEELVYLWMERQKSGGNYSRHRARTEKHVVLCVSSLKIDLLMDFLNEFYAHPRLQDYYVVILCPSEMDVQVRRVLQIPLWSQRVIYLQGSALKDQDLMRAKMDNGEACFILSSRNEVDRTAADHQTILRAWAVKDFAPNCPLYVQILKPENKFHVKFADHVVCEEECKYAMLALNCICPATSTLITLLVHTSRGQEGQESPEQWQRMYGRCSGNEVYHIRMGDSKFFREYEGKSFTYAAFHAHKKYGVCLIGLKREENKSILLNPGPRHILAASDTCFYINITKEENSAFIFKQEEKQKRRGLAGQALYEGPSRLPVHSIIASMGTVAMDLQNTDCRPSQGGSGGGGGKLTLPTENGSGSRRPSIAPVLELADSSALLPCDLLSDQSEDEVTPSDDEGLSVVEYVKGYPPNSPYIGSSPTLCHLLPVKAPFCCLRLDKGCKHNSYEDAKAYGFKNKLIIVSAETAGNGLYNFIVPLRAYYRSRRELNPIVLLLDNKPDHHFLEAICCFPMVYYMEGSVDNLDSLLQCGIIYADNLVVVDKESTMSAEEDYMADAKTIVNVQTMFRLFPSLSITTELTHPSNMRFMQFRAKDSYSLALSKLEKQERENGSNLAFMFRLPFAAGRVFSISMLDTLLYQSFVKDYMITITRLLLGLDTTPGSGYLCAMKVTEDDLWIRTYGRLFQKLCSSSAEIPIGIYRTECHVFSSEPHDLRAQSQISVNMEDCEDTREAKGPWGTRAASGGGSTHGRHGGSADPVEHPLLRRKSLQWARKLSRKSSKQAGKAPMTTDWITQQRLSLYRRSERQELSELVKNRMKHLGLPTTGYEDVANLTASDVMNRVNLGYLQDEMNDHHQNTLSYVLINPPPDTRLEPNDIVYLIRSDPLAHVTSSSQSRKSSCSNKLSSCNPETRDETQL
Assay: Patch clamp of inside-out patches from Xenopus oocytes injected with rSlo2 cRNA
Format: cell-based
Method: FIG. 2a depicts current traces from an inside-out macropatch (2-3 MΩ electrode prior to seal formation) in the presence of 50 mM [Na+], FIG. 2a (i) and in the absence of [Na^+]i FIG. 2a (ii). Voltage steps (−70 mV to +70 mV) were applied in 10 mV increments from a holding potential of −70 mV. The calculated potassium equilibrium potential was −78 mV in these experiments. FIG. 2a (iii) The current-voltage relationship of the mean current obtained from 7 macropatches with a holding potential of −80 mV, and voltage steps from −80 to +80 mV in 10 mV increments FIG. 2a (iv) Plot of normalized IKNa obtained upon perfusion of inside-out patches with different Na^+ concentrations as indicated.
FIG. 2c depicts a current trace of an uninjected oocyte. […] For the macropatch experiments the pipette solution contained (in mM) 145 Na^+-gluconate, 5 KCI, 5 Ca^2+-gluconate, 3 Mg^2+-gluconate, 11 dextrose, 5 HEPES, pH 7.4 with NaOH. The bath solution contained (in mM): 110 KCI, 50 NaCI and 5 HEPES, pH 7.3 with KOH. NaCI was replaced by choline-Cl for the dose-response curve. In single channel experiments, the pipette solution contained (in mM) 80 K^+-gluconate, […], 5 HEPES, 2 MgCI2, pH 7.2 with KOH. The bath solution contained (in mM) 80 KCI, 80 NaCI or 80 cholineCl, 5 HEPES, 5 EGTA, pH 7.2 with KOH.
FIG. 5a (iii) depicts the current-voltage relationship of the mean current between 700-800 ms. The pipette solution contained (in mM) 80 K^+-gluconate, 80 Na^+-gluconate, 5 HEPES, 2 MgCI2, pH 7.2 with KOH. The bath solution contained (in mM) 80 KCI or 80 K^+-gluconate, 20 NaCI and 60 choline-Cl or 20 Na^+-gluconate and 120 dextrose, 5 HEPES, 5 EGTA, pH 7.2 with KOH. (b) (i) Dose response relationship for [Na+]i at 160 mM [CI]i or 10 mM [CI]i,. (ii) Dose response relationship for [CI]i at 80 mM [Na^+]i or 20 mM [Na^+]i. Currents for the dose response curves were measured and averaged over a 1 second interval at −60 mV and each patch was normalized to the current elicited in 80 mM [Na^+]i, and 160 mM [CI]i. Each experiment was completed within 120 seconds to minimize rundown and was perfused in order of decreasing [Na^+]i or [CI]i.
The single electrode patch clamp system was first used to analyze inside-out patches, and to investigate the properties of rSlo2 in the Xencpus oocyte expression system by transcribing cRNA and injecting it into oocytes.
To obtain efficient expression of rhSlo2.2 in Xencpus oocytes, the original rhSlo2.2 construct was cloned into pOX, a special vector optimized for oocyte expression. Capped cRNA was synthesized using the T3 mMessage mMachine kit (Ambion). rhSlo2.2 was linearized using NotI. Reactions were resuspended in nuclease-free water to a final concentration of 1.5 μg/μl. Oocytes were harvested from adult female Xenopus iaevis as described. Defolliculated oocytes were injected with approximately 75 ng of cRNA using a Drummond Nanojector. Injected oocytes were incubated at 19° C. in ND96 medium (in mM): 96 NaCl, 2 KCI, 1.8 CaCl2, 1 MgCl2, 5 HEPES, pH 7.5 with NaOH. Oocytes were analyzed 2-3 days after injection for single channel analysis or 3-6 days after injection for macroscopic current analysis.
Prior to recording, the vitelline membranes were mechanically removed. The contents of solutions used are described in the figure legends. […] Data were analyzed using pClamp 8.2 (Axon Instruments) and Sigmaplot 5 (Jandel Scientific) or Origin 5.0 (Microcal).

[Ca+2] [Ca^2+i]
single channel activity (about 100 μM Ca^2+i, in the absence of Na^+i (data not shown)): inhibited
channel activity (presence of about 80 μM ~200 μM Ca^2+i (data not shown)): no effect

Cl [Cl^−]
current as fraction of I max (55 mM Cl^−, 20 mM sodium ions, estimated from dose response plot): approximately 0.18 of I max
activation of rSlo2 by Cl^−i (seen only when Na^+i is also present): activated

[Na+] [Na^+]
increase of amplitude of macroscopic current in patches (sodium concentration at cytoplasmic side increased from 10 to 50 mM, inside-out patch): more than ten times
